# From US6610489B2, “Pharmacogenomics and identification of drug targets by reconstruction of signal transduction pathways based on sequences of accessible regions” (Sangamo BioSciences, Inc., priority 2000, dated 2003)
# Experiments:
# [1] = tested on: p16 CpG island sequences associated with acetylated histone H3 in HCT15 cells; experiment: Chromatin immunoprecipitation with anti-acetylated histone H3 antibody, real-time quantitative PCR (Taqman); format: cell-based, human; conditions: HCT15 cells treated with 2 μM 5-azacytidine during three-day growth, compared to untreated cells; VEGF gene region as control sequence
# Excerpt: In this example, chromatin immunoprecipitation (ChIP) was used to enrich a population of DNA fragments comprising regulatory sequences for the p16 tumor suppressor gene, by virtue of their association with acetylated histone H3. A CpG island is located in the p16 gene (GenBank Accession No. AF022809), between about 30 nucleotide pairs upstream, and about 590 nucleotide pairs downstream of the transcriptional startsite identified by Hara et al. (1996) Mol. Cell. Biol. 16:859-867. One form of regulation of genes associated with CpG islands is through methylation of C residues within the CpG island. […]
# Untreated and 5-azacytidine-treated HCT15 cells were analyzed by chromatin immunoprecipitation to test for a specific association of acetylated H3 with unmethylated (i.e., active) CpG island sequences. […] Then, in both portions, formaldehyde crosslinks were reversed, DNA was purified, and the purified DNA was analyzed by means of a real-time quantitative PCR assay, known colloquially as “Taqman®.” The DNA was analyzed for the relative proportion of two sequences: (1) a region adjacent to the CpG island located in the 5′-untranslated region of the p16 gene (see above), and (2) a portion of the VEGF gene corresponding to the region from 2324 to 2246 nucleotide pairs upstream of the transcription initiation site.
# [2] = tested on: p16 gene; conditions: HCT15 cells, in which the p16 CpG island is methylated and the p16 gene is inactive; cited from earlier work
smiles,measurement,setting,value
Nc1ncn([C@@H]2O[C@H](CO)[C@@H](O)[C@H]2O)c(=O)n1 [5-azacytidine],enrichment of p16 CpG island sequences associated with acetylated H3,[1],approximately 10 fold
same,p16 transcription,[2],activation of p16 transcription
